One test addresses T1, MT2 receptor (Homo sapiens, UniProt P49286).
T1 sequence (P49286 1-362): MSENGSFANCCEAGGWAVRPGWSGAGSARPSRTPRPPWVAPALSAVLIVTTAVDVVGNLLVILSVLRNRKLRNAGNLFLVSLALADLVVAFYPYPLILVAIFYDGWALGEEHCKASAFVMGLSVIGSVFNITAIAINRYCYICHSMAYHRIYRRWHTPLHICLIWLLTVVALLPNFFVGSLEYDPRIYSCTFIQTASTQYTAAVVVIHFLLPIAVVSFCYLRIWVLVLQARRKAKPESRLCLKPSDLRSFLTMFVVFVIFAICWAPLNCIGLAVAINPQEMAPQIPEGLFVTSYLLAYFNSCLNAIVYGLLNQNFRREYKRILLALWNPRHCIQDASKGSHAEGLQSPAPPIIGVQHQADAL
As to the kind of experiment: CRE-Luc (luciferase reporter gene) assay, MT2. The test is classed as cell-based. More on the design: expressed in transfected cells. The conditions noted are these: HEK 293-pCREluc cells with MT2; inhibition of forskolin response. On the procedure:
The luciferase reporter gene assay offers another way to measure melatonin receptor activation. Cells expressing cAMP-responsive element-driven luciferase reporter gene (293-pCREluc) and either the MT1 or MT2 receptor are treated with forskolin (a substance which stimulates cAMP production as well as the subsequent luciferase gene expression) alone or with a novel isoquinolone compound. As melatonin receptor activation inhibits cAMP production, any suppression in the expression of luciferase leads to a decrease in enzymatic activities and a reduction in the amount of luminescence signal generated.
The luciferase assay, a reporter gene assay, was performed to confirm the ability of the invention to activate the melatonin receptors. Prior to the assay, HEK (human embryonic kidney) 293 cells are stably transfected with cAMP-responsive element-driven luciferase reporter gene (293-pCREluc) and cDNAs encoding MT1 or MT2 receptors. The cells are then exposed to the novel isoquinolone compounds, after which the substrate luciferin is added and the resulting luminescence measured.
Prior to the assay human embryonic kidney (HEK) 293 cells (CRL-1573, ATCC) is maintained at 37° C. in minimum essential medium (MEM) supplemented with 10% fetal bovine serum (FBS), 100 units/ml penicillin and 100 μg/ml streptomycin in a humidified atmosphere containing 5% CO2. Human embryonic kidney 293 cells stably transfected with cAMP-responsive element-driven luciferase reporter gene (293-pCREluc) are established and maintained in growth medium supplemented with 300 μg/ml G418 sulphate.
For luciferase assays, HEK-293 cells stably expressing pCRE-luciferase are seeded at a density of 15,000 cells/well into 96 well plates. Transfection is carried out using Lipofectamine Plus® reagent at 0.2 μl of both Plus and lipofectamine reagents with 50 ng cDNAs encoding MT1 or MT2 receptors per well. After a 3 hour transfection period at 37° C., 50 μl of DMEM with 20% fetal calf serum (FCS) is added into the wells and the plate is incubated at 37° C. for 48 h prior to 24 hour serum starvation. […]
Cells are harvested by replacing medium in the well by 50 μl luciferase lysis buffer. The Berthold microplate luminometer is maintained at 25° C. throughout the assay. Injector M connected to an empty tube and P connected to the drug tube are set to inject 25 μl of luciferin into appropriate wells. A 1.6 second delay time followed by a 1 second measuring time period is assigned to injector M, whereas injector P is measured for 10 seconds after luciferase substrate is introduced into the well. Results are expressed as relative luminescent units (RLU). Where indicated, agonist-induced activity is expressed as a percentage of the RLU obtained with forskolin.
In general terms: Reporter assays use an easily measured gene product as a stand-in for the process of interest.

In a further test the target is MT1 receptor (Homo sapiens, UniProt P48039). As to the kind of experiment: FLIPR Ca2+ mobilization assay, MT1. The note with it: for % Response of 2-IMT: relative to 2-IMT response; for logEC50 ± SEM: NSR = No significant response. The test is classed as cell-based. More on the design: expressed in transfected cells; host or cells: COS-7 (monkey kidney fibroblast). On the procedure:
1. FLIPR Ca^2+ Mobilization Assay
This assay indicates the ability of the novel compounds to activate MT1 and MT2 receptors by measuring downstream events of the activated receptor, in this case intracellular calcium mobilization.
1. Intracellular Ca^2+ Mobilization Assay Using Fluorometric Imaging Plate Reader (FLIPR®)
An intracellular calcium mobilization assay was performed to screen the isoquinolone compounds against the two melatonin receptor subtypes, MT1 and MT2 on the fluorometric imaging plate reader (FLIPR®). In order to facilitate the screening process in a high-throughput manner, chimeric G proteins with the ability to couple to a range of GPCR as well as activate intracellular Ca^2+ were employed. The melatonin receptor subtype (either MT1 or MT2) was co-expressed with the G-protein chimeras in COS-7 (monkey kidney fibroblast) cells. During the assay, cells were exposed to the novel isoquinolone compounds and the corresponding change in fluorescence was measured. Both single point and dose-dependant assays were performed for each isoquinolone compound and based on the latter a dose response curve was generated and the corresponding EC50 for each receptor subtype determined.
Specifically, COS-7 cells were seeded at a density of 20,000 cells/well into 96-well plates designed for FLIPR assays, using Opti-MEM with 10% FCS at a volume of 100 μl/well. Transfection was carried out using Lipofectamine 2000® reagent. In each well, 0.2 μg of the GPCR and G protein cDNA were diluted with 25 μl of Opti-MEM and 0.2 μl of Lipofectamine 2000® was diluted with another 25 μl of Opti-MEM. They were added to appropriate wells after the two components were mixed for 20 min.
After 48 hours of incubation post-transfection, 50 μl of the transfection medium was removed from each well followed by the labelling of transfected cells with 100 μl of 2 μM Fluo-4 in calcium containing HBSS (Hank's balanced salt solution) with 20 mM HEPES (N-[2-hydroxyethyl]piperazine—N′-[2-ethanesulfonic acid]; pH 7.5) and 2.5 mM probenecid (anion exchanger inhibitor, freshly prepared) for 1 hour at 37° C. 70 μl of 3× drugs (isoquinolinone compounds encompassing the invention) were prepared and aliquoted into the corresponding wells in the V-well drug plate. Changes in fluorescence were detected in the FLIPR 96 with an excitation wavelength of 488 nm. The background fluorescence was adjusted to the range of 8,000 to 12,000 units by altering the laser power and exposure time (typically 0.4 W and 0.4 sec, respectively) for the FLIPR setup. 50 μl of each agonist solution was added to the corresponding wells and the fluorescent emission (between 510 and 560 nm) was monitored for 3 min. Results were expressed as change in fluorescent intensity units (FIU). Concentration-response curves were generated by determining the maximal change in FIU of each data set. Numerical analysis of the statistics and EC50 (median effective concentration) values were performed on GraphPad Prism version 3.03.
Then the intracellular Ca^2+ mobilization assays using the Fluorometric Imaging Plate Reader (FLIPR®) were performed as described above.
(In general: Calcium assays in cells follow changes in intracellular calcium, usually with a dye or a luminescent sensor.)

The mark [1] stands for this setting: Table 1, MT1 in COS-7 cells with chimeric G protein, log value, negative, NSR = no significant response.
The mark [2] stands for this setting: Table 2, MT1, log value, negative.
The mark [3] stands for this setting: Table 1, MT1 in COS-7 cells with chimeric G protein, log value, negative, NSR = no significant response, read-out: Log(EC50) ± SEM (converted).

The structures appear in SMILES notation. Where two headings read alike, the source gives them in different places.

As usually defined, the EC50 is the midpoint of the concentration-response curve.

MT1 receptor, sequence (P48039 whole entry): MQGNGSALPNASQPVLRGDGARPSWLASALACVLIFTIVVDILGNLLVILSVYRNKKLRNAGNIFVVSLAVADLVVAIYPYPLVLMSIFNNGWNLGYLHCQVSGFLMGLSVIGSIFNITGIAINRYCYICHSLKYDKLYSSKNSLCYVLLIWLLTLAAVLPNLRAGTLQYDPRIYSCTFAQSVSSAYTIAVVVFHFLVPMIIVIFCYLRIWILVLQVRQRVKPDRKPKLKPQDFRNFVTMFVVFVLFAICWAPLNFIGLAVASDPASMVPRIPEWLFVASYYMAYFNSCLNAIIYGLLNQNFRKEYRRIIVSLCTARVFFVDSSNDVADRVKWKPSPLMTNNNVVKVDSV

As to `COc1cccc(COc2cc3ccn(C)c(=O)c3cc2OC)c1` [IS044], at MT2 receptor, the “CRE-Luc Assay MT2 % Inh ± SEM of 1 μM Fsk” value came out at 73.9 ± 12.4%. The “% Response of 2-IMT” value on MT1 receptor (Table 1, MT1) is recorded as 54.5%. Further, the “Log(EC50) ± SEM” value at MT1 receptor (setting [1]) is recorded as −6.79 ± 0.17. For the same molecule, the “logEC50 ± SEM” value on MT1 receptor (setting [2]) is −6.79 ± 0.17. In addition, the EC50 at MT1 receptor (Table 2, MT1, read-out: EC50) was 161 nM.
As for `COc1cccc(COc2c(OC)ccc3c(=O)n(C)ccc23)c1` [IS527], on MT2 receptor, the “CRE-Luc Assay MT2 % Inh ± SEM of 1 μM Fsk” value is 61.0 ± 9.3%. The “Log(EC50) ± SEM” value on MT1 receptor (setting [1]) was “NSR”. Moreover, the “logEC50 ± SEM” value on MT1 receptor (setting [2]) is reported as “NSR”.
On to `COc1cc(COc2cc3ccn(C)c(=O)c3cc2OC)cc(OC)c1` [IS042], for which the “CRE-Luc Assay MT2 % Inh ± SEM of 1 μM Fsk” value at MT2 receptor came out at 71.3 ± 8.8%. Besides, the “% Response of 2-IMT” value at MT1 receptor (Table 1, MT1) is recorded as 49.4%. The EC50 is 12 nM at MT1 receptor (setting [3]) and 12 nM on MT1 receptor (Table 2, MT1, read-out: EC50).
Turning to `COc1ccc2c(=O)n(C)ccc2c1OCc1ccc(C)cc1` [IS529], the “CRE-Luc Assay MT2 % Inh ± SEM of 1 μM Fsk” value at MT2 receptor came to 61.3 ± 13.1%. On MT1 receptor (setting [1]), the “Log(EC50) ± SEM” value was “NSR”. Further, the “logEC50 ± SEM” value at MT1 receptor (setting [2]) is “NSR”.
With `COc1cccc(COc2cc3c(=O)n(C)ccc3cc2OC)c1` [IS521], the “CRE-Luc Assay MT2 % Inh ± SEM of 1 μM Fsk” value at MT2 receptor came out at 70.2 ± 9.2%. In addition, at MT1 receptor (Table 1, MT1), the “% Response of 2-IMT” value is recorded as 31.8%. For the same molecule, the EC50 at MT1 receptor (setting [3]) was 1860 nM; at MT1 receptor (Table 2, MT1, read-out: EC50), 1860 nM.
In the case of `Cn1ccc2cc(OC(=O)c3ccccc3)c(OC(=O)c3ccccc3)cc2c1=O` [IS039], the “CRE-Luc Assay MT2 % Inh ± SEM of 1 μM Fsk” value on MT2 receptor came out at 69.8 ± 7.2%. The “Log(EC50) ± SEM” value at MT1 receptor (setting [1]) is given as “NSR”. Further, the “logEC50 ± SEM” value on MT1 receptor (setting [2]) was “NSR”.
With `COc1cc(COc2cc3c(=O)n(C)ccc3cc2OC)cc(OC)c1` [IS523], the “CRE-Luc Assay MT2 % Inh ± SEM of 1 μM Fsk” value at MT2 receptor is 71.6 ± 16.3%. Besides, the “Log(EC50) ± SEM” value on MT1 receptor (setting [1]) is given as “NSR”. Moreover, the “logEC50 ± SEM” value on MT1 receptor (setting [2]) is “NSR”.
Turning to `COc1cc2ccn(C)c(=O)c2cc1OCc1ccc(C(C)(C)C)cc1` [IS526], the “CRE-Luc Assay MT2 % Inh ± SEM of 1 μM Fsk” value at MT2 receptor was 17.8 ± 4.7%. At MT1 receptor (Table 1, MT1), the “% Response of 2-IMT” value is on record as 46.2%. In addition, the “Log(EC50) ± SEM” value at MT1 receptor (setting [1]) is −5.35 ± 1.32. Moreover, the “logEC50 ± SEM” value at MT1 receptor (setting [2]) is given as −5.35 ± 1.32. Also, the EC50 on MT1 receptor (Table 2, MT1, read-out: EC50) stood at 4490 nM.
Turning to `COc1cc(COc2c(OC)ccc3c(=O)n(C)ccc23)cc(OC)c1` [IS528], at MT2 receptor, the “CRE-Luc Assay MT2 % Inh ± SEM of 1 μM Fsk” value is given as 60.8 ± 8.5%. The “% Response of 2-IMT” value on MT1 receptor (Table 1, MT1) was found to be 42.1%. Besides, the “Log(EC50) ± SEM” value on MT1 receptor (setting [1]) is −5.15 ± 0.51. Further, the “logEC50 ± SEM” value at MT1 receptor (setting [2]) is on record as −5.15 ± 0.51. In addition, the EC50 on MT1 receptor (Table 2, MT1, read-out: EC50) amounted to 7140 nM.

The values are drawn from patent US8389544B2, “Isoquinolone compounds as subtype-selective agonists for melatonin receptors MT1 and MT2” (The Hong Kong University of Science and Technology, priority 2007, dated 2013).
